Like-named read-outs stand apart in the source and are kept apart here.
Key:
[1] = system: H3K27me3 in HT1197 bladder cancer cell line; test: Global H3K27me3 intracellular levels, HT1197; assay type: cell-based; conditions: Homo sapiens, 72 h; HT1197, Day 3; read-out: EC50, reduction of global H3K27me3 levels
[2] = system: HT1376 (bladder cancer) cell lines, HT1376-DMF and HT1376-CR; test: Antiproliferative activity in HT1376 bladder cancer cell lines; assay type: cell-based; conditions: cisplatin resistant HT1376-CR versus age-matched DMF control HT1376-DMF; FIG. 1A/1B
Procedure: (§1) Data shown are mean cell viability±standard error of the mean (SEM), n=2-3 and are representative of duplicate independent experiments.
(§2) Representative of duplicate independent experiments; mean±SD shown.
(§3) The sensitivity of multiple solid tumor cancer cell lines to the antiproliferative activity of Compound 1 with and without cisplatin was evaluated. […] Combination treatment with Compound 1 and cisplatin, however, led to greater than 50% reduction in growth.

[3] = target: T1, EZH2 (PRC2) (Homo sapiens, UniProt Q15910); test: Kinetic assays characterising binding to PRC2; conditions: from kinetic assays
T1 sequence (Q15910 whole entry): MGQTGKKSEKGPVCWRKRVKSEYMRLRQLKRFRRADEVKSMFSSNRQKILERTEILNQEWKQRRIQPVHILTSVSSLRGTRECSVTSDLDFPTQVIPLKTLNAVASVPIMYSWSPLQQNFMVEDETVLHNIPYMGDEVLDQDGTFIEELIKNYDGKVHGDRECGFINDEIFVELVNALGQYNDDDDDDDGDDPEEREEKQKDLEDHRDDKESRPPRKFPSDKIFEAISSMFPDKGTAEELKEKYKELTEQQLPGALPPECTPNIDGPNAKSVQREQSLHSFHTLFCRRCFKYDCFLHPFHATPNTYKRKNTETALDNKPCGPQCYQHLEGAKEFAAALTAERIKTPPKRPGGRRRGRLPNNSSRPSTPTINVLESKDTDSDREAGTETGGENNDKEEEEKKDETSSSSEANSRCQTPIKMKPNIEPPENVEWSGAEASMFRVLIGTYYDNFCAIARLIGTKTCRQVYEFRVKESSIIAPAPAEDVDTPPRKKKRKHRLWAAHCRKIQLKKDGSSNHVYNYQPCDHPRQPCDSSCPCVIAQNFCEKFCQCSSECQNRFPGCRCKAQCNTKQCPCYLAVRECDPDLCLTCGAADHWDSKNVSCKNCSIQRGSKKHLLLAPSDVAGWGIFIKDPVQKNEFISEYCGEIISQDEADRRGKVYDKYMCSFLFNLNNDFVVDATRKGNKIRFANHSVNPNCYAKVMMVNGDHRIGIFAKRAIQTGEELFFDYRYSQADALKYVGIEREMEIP
T1 sequence (O75530 whole entry partner): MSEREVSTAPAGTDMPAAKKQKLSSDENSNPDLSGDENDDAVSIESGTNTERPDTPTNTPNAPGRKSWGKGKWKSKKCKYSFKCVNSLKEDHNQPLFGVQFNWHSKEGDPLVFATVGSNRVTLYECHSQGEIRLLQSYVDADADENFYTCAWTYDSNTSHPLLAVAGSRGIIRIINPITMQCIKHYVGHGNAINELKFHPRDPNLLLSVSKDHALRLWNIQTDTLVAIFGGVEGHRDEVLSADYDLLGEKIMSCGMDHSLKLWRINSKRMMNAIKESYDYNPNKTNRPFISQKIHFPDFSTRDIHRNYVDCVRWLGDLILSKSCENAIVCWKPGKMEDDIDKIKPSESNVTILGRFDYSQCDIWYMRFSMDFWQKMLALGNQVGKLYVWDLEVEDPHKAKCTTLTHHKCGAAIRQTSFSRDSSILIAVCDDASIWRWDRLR
T1 sequence (Q15022 whole entry partner): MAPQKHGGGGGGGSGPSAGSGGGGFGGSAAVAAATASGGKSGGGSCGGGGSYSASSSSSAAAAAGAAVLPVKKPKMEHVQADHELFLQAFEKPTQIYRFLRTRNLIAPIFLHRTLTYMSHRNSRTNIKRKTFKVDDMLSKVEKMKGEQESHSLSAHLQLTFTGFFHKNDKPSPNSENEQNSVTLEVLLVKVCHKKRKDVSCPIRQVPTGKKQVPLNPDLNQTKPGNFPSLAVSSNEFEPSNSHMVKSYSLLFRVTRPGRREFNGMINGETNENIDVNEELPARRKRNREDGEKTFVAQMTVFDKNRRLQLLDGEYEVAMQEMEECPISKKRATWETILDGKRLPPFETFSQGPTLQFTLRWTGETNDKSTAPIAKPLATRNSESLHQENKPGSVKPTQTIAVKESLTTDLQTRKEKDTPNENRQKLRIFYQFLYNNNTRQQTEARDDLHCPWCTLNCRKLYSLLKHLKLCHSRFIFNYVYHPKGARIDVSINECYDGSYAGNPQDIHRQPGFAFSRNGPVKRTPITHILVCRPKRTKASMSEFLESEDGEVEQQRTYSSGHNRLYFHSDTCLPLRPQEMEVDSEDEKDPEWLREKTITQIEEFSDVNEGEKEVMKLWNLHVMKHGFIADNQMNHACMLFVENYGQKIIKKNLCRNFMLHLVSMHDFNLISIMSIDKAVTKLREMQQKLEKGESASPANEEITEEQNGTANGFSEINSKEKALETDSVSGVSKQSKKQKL
T1 sequence (Q09028 whole entry partner): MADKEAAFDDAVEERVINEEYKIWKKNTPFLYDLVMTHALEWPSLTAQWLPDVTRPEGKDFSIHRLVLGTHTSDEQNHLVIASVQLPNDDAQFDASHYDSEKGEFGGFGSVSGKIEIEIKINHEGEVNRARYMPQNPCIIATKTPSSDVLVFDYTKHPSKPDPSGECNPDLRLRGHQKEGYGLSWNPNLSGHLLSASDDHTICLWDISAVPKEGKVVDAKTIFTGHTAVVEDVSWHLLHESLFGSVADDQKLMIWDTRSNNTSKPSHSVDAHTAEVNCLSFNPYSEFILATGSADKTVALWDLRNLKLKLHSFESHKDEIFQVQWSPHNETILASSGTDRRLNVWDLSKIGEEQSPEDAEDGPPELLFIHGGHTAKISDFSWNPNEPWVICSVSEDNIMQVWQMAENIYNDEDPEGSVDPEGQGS
Procedure: In biochemical assays, Compound 1 suppresses catalytic activity of wild-type and Y641N mutant EZH2-containing PRC2 complex, as well as EZH1-containing PRC2 complex, with half-maximal inhibitory concentrations (IC50) values of 0.02 and 0.03 nM for wild-type and Y641N mutant EZH2, respectively, and 0.06 nM for EZH1. See e.g., PCT/US2019/027932. […] Based-upon the kinetic analysis it was determined that Compound 1 binds to PRC2 with a long residence time (approximately 101 days). See e.g., PCT/US2019/027932.

[4] = target: T1, EZH2 (PRC2); conditions: binding to PRC2 complex, see PCT/US2019/027932, cited from earlier work
[5] = system: H3K27me3 in HeLa (wild-type EZH2-containing cervical cancer cell line); conditions: after 4 days of treatment, see PCT/US2019/027932, read-out: EC50, reduction of global H3K27me3 levels; cited from earlier work
[6] = system: A2780 (ovarian cancer) cell lines, A2780-P and A2780-CR; test: Antiproliferative activity in A2780 ovarian cancer cell lines; assay type: cell-based; conditions: cisplatin resistant A2780-CR versus parental A2780-P; FIG. 1A/1B
Procedure: as §1, §2, §3

[7] = system: H3K27me3 in ovarian cancer TOV21G cell line; test: Global H3K27me3 intracellular levels, TOV21G; assay type: cell-based; conditions: Homo sapiens, 72 h, Day 3, read-out: EC50, reduction of global H3K27me3 levels
[8] = system: gene expression in bladder cancer cell lines; test: RNA-sequencing of bladder cancer cell lines; assay type: cell-based; conditions: treatment for 4 days
From the text: Reduction in H3K27me3 levels result in changes in gene expression. RNA-sequencing of bladder cancer cell lines after treatment with Compound 1 for 4 days results in significant changes in the expression levels of multiple genes. […] The increase in gene expression is both dose and time dependent, with increasing expression observed at higher concentrations of Compound 1 and at later timepoints. This contrasts with reductions of H3K27me3 as methyl mark changes were observed after 1 day of Compound 1 treatment. […] See Yang X, Karuturi R K, Sun F, et al. CDKN1C (p57) is a direct target of EZH2 and suppressed by multiple epigenetic mechanisms in breast cancer cells. PLoS One. 2009; 4(4):e5011. Low expression of CDKN1C is seen in advanced bladder and breast cancers and is correlated with poor prognosis. See Yang above and Hoffmann M J, Florl A R, Seifert H H, et al. Multiple mechanisms downregulate CDKN1C in human bladder cancer. Int J Cancer. 2005 Apr. 10; 114(3):406-13.

[9] = target: EZH1-containing PRC2 complex (Homo sapiens, UniProt Q92800); conditions: see PCT/US2019/027932, read-out: half-maximal inhibitory concentration (IC50), catalytic activity; cited from earlier work
Chain of EZH1-containing PRC2 complex (Q92800 whole entry): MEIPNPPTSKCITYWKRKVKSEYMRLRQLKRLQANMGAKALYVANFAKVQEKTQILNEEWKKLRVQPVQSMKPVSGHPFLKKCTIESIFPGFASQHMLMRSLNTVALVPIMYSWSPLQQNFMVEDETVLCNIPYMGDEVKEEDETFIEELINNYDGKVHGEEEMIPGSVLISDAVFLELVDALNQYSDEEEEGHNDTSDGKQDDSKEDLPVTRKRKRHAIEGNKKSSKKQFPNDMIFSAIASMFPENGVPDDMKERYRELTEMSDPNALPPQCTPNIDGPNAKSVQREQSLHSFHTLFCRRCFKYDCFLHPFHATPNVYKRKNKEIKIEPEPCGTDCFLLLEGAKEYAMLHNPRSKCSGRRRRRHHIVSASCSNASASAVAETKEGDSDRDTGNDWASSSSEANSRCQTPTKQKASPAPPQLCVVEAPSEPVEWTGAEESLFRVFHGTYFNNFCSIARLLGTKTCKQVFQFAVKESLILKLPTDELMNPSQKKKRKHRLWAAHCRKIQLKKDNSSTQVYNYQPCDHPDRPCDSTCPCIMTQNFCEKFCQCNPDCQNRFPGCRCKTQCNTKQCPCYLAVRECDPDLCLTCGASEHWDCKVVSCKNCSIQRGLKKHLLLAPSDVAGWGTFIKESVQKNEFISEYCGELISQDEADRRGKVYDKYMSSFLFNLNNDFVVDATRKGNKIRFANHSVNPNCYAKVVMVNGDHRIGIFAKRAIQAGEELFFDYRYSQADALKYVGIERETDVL
Chain of EZH1-containing PRC2 complex (O75530 whole entry partner): as the sequence (O75530 whole entry partner) above
Chain of EZH1-containing PRC2 complex (Q15022 whole entry partner): as the sequence (Q15022 whole entry partner) above
Chain of EZH1-containing PRC2 complex (Q09028 whole entry partner): as the sequence (Q09028 whole entry partner) above

[10] = target: Y641N mutant EZH2-containing PRC2 complex (Homo sapiens, UniProt Q15910, Y641N); conditions: see PCT/US2019/027932, read-out: half-maximal inhibitory concentration (IC50), catalytic activity; cited from earlier work
Chain of Y641N mutant EZH2-containing PRC2 complex (Q15910 whole entry Y641N): as the sequence (Q15910 whole entry) above, with Y641N counted along it
Chain of Y641N mutant EZH2-containing PRC2 complex (O75530 whole entry partner): as the sequence (O75530 whole entry partner) above
Chain of Y641N mutant EZH2-containing PRC2 complex (Q15022 whole entry partner): as the sequence (Q15022 whole entry partner) above
Chain of Y641N mutant EZH2-containing PRC2 complex (Q09028 whole entry partner): as the sequence (Q09028 whole entry partner) above

[11] = system: H3K27me3 in 639V bladder cancer cell line; test: Global H3K27me3 intracellular levels, 639V; assay type: cell-based; conditions: Homo sapiens, 72 h, Day 3, read-out: EC50, reduction of global H3K27me3 levels
[12] = system: HT1376 tumors; test: Antitumor effect in HT1376 tumors; assay type: in vivo; conditions: HT1376 tumors in CB17 SCID mice; FIG. 4
From the text: FIG. 4 illustrates the antitumor effect of Compound 1, cisplatin, and the combination of both in HT1376 tumors in CB17 SCID mice. Data shown are mean tumor size±SEM, n=6. PO=oral administration, IV=intravenous administration, QD=once per day, QW=once per week.

[13] = target: wild-type EZH2-containing PRC2 complex (Homo sapiens, UniProt Q15910); conditions: see PCT/US2019/027932, read-out: half-maximal inhibitory concentration (IC50), catalytic activity; cited from earlier work
Chain of wild-type EZH2-containing PRC2 complex (Q15910 whole entry): as the sequence (Q15910 whole entry) above
Chain of wild-type EZH2-containing PRC2 complex (O75530 whole entry partner): as the sequence (O75530 whole entry partner) above
Chain of wild-type EZH2-containing PRC2 complex (Q15022 whole entry partner): as the sequence (Q15022 whole entry partner) above
Chain of wild-type EZH2-containing PRC2 complex (Q09028 whole entry partner): as the sequence (Q09028 whole entry partner) above

EC50 [1] [nM]	selectivity for EZH2 over EZH1 [3]	EC50 [7] [nM]	EC50 [11] [nM]	SMILES	sensitivity (cell viability) to single treatment [2]	residence time [4]	residence time ([4]; listed as 7-chloro-2-(4-(3-methoxyazetidin-1-yl)cyclohexyl)-2,4-dimethyl-N-(6-methyl-4-(m))) [days]	EC50 [5] [nM]	sensitivity (cell viability) to single treatment [6]	CDKN1C (p57, Kip2) gene expression [8]	IC50 [9] [nM]	IC50 [10] [nM]	tumor growth [12]	IC50 [13] [nM]
0.14	approximately 70 fold	0.26	0.09	COC1CN(C2CCC(C3(C)Oc4c(Cl)cc(C(=O)NCc5c(SC)cc(C)[nH]c5=O)c(C)c4O3)CC2)C1 (single isomer, unassigned) [Compound 1, 7-chloro-2-(4-(3-methoxyazetidin-1-yl)cyclohexyl)-2,4-dimethyl-N-((6-methyl-4-(methylthio)-2-oxo-1,2-dihydropyridin-3-yl)methyl)benzo[d][1,3]dioxole-5-carboxamide]	strongly sensitive	approximately 101 days	~101	0.4	strongly sensitive	highly upregulated	0.06	0.03	effective in reducing tumor growth	0.02
				N.N.[Cl][Pt][Cl] [cisplatin, reference compound]	less sensitive				less sensitive					
